Data as given in patent US8841292B2, “Induced hypothermia” (Weil Institute of Critical Care Medicine, priority 2011, dated 2014).

Assays:
porcine model of CPR = experiment: Proposed porcine model study of cardiac arrest and resuscitation; type: in vivo, Sus scrofa; conditions: hypothesis
From the text: A porcine model of cardiac arrest and resuscitation in domestic pigs, weighing between 40±2 kg, is utilized for a proposed study that applicant is conducting. The porcine model is selected because (1) it has a large body mass and the timing of reduction in body temperature during hypothermia is close to that of the human. […] (3) A large animal model facilitates non-invasive measurements of myocardial function by echocardiographic methods, preserving an intact chest wall for conventional CPR, and specifically, precordial compression. (4) Our research team has had extensive experience for more than 20 years with the porcine model, under conditions of cardiac arrest and resuscitation.
Our aims are to investigate the effects of WIN55, 212-2, the cannabinoid CB1/CB2 receptor agonist, when administered immediately following resuscitation with or without physical surface body cooling on blood temperature, post resuscitation myocardial and cerebral functions, and duration of survival in our porcine model of CPR. We hypothesize that when WIN55, 212-2 is administered immediately following resuscitation, it will rapidly achieve the target blood temperature (34° C., <3 hours), therefore improving post-resuscitation myocardial and cerebral functions, and duration of survival. We further hypothesize that when WIN55, 212-2 is administered in combination with physical surface body cooling, the combination will further reduce the duration for achieving target blood temperature (<1 hour). It will therefore further improve post-resuscitation myocardial and cerebral functions, and duration of survival.
To test our hypotheses, the independent variables are the WIN55, 212-2 and WIN55, 212-2 with physical surface cooling. […]
In experiments, male domestic pigs, weighing 40±2 kg, are fasted overnight except for free access to water. […] End-tidal PC02 is monitored with an infrared analyzer (Model 01R-7101A, Nihon Kohden Corp, Tokyo, Japan). […]

cannabinoid receptors = conditions: versus other neurotransmitter and ion channels; cited from earlier work
normal rats = conditions: cited from earlier work
[1] = system: rat model of cardiac arrest and resuscitation; experiment: Rat model of cardiac arrest and resuscitation; type: in vivo
Protocol: The effects of WIN 55, 212-2 were investigated initially in our rat model of cardiac arrest and resuscitation. […] Ventricular fibrillation was induced and untreated for 6 mins and followed by 8 mins of CPR. Resuscitation was then attempted with defibrillation. WIN 55, 212-2 was infused intravenously 10 mins after resuscitation in a dose of 1 mg/kg/hour and continued for 6 hours. The body temperature decreased from 37 to 34° C. within 4 hours after infusion (FIG. 1).

Structure (SMILES) | blockade of the effects of WIN55, 212-2 (porcine model of CPR; pre-treatment with selective CB1 antagonist) | time to achieve target blood temperature (34° C.) (porcine model of CPR; administered immediately following resuscitation, drug alone) | time to achieve target blood temperature (porcine model of CPR; in combination with physical surface body cooling) | selectivity for cannabinoid receptors (cannabinoid receptors) | body temperature reduced to (normal rats; intramuscular injection, from 37 ° C.) | duration hypothermia was maintained (normal rats; intramuscular injection) | hypothermia, dose dependence (normal rats; intramuscular injection) | hypothermia effect with selective CB1 antagonist (normal rats; selective CB1 antagonist given) | time after infusion for body temperature decrease to 34 ° C. ([1]; 1 mg/kg/hour i.v. infusion for 6 hours) | body temperature decreased to ([1]; 1 mg/kg/hour i.v. infusion from 10 mins after resuscitation for 6 hours, from 37 ° C.) | survival ([1]; all animals that received the drug) | neurological deficits ([1]; survivors) | post resuscitation myocardial function (ejection fraction, FIG. 2) ([1]; versus controls)
Cc1c(C(=O)NN2CCCCC2)nn(-c2ccc(Cl)cc2Cl)c1-c1ccc(Cl)cc1 [SR141716A] | completely blocked | – | – | – | – | – | – | – | – | – | – | – | –
Cc1c(C(=O)c2cccc3ccccc23)c2cccc3c2n1[C@H](CN1CCOCC1)CO3 [WIN 55, 212-2] | – | < 3 h | < 1 h | highly selective | 34 °C | up to 5 hours | produced hypothermia in a dose-dependent manner | completely blocked | ≤ 4 h | 34 °C | more than 72 hours | minimal neurological deficits | significantly better than the controls
